Laboratory results from patent US7998474B2, “Methods for treating an inflammatory disease of the bowel” (Rowett Research Institute, priority 2001, dated 2011).
Marks after values point to notes of the source that are not given here.

Experiments:
human PMNs = experiment: Transepithelial migration of PMN through Caco-2 monolayer (MPO assay); conditions: Caco-2 Transwell, S. enteritidis, MPO readout
RelA [NF-κB p65] [1] = experiment: Immunofluorescence localisation of RelA in Caco-2 cells; format: cell-based; conditions: Caco-2 cells, 10^8 S. enteritidis, 2 hours
S. enteritidis = S. enteritidis infection of minimal flora rats, MPO in ileal mucosa; conditions: 10^8 cfu B. thetaiotaomicron in jelly for 19 days, then 10^8 S. enteritidis, 6 days post infection, P<0.001
[2] = Body weight, tissue weights and composition, faecal output in rats; format: in vivo, Hooded Lister rats
Text: Twenty-four male specific pathogen-free Hooded Lister rats (40 g), bred in the small animal unit of the Rowett Research Institute, were weaned at 19 days and immediately transferred to a Class II facility. They were housed individually in metabolism cages (Techniplast, Kettering, UK) within flexi-film isolators (Moredun, Animal Health, Penicuik, UK) for the duration of the study (21 days). Nesting tunnels were provided in each metabolism cage and cages were arranged within the isolators to allow sight of but not contact with other animals. Sterile distilled water was available at all times. Rats were weighed daily and faeces was collected throughout the study.
Data are the means ISD (n=3). The rats were initially given free access to a high quality semi-synthetic (100 g protein kg^−1) lactalbumin-based diet (Grant et al, 2000). […] This was the average daily free intake observed for rats of the same age after oral infection with Salmonella enterica var. Enteritidis and around 70% of the free intake of this diet by non-infected animals. The rats were housed and managed in this manner from weaning to reduce environmental exposure to bacteria and cross-contamination post-weaning (Grant, 1996).
Twelve of the rats were given B. thetaiotaomicron (approximately 10^8 CFU) once daily from weaning (19d) through to completion of the study. At 34 days of age, six rats pre-treated with B. thetaiotaomicron and six controls were given, by gavage, a single dose of 0.8 ml of Salmonella serovar Enteritidis S1400 culture (approximately 10^9 CFU). The remaining rats were given the equivalent amount of culture medium. All rats were returned to their cages and fed lactalbumin-based diet (7 g rat^−1 day^−1) for a further 6 days. On the final day, the rats were fed 2 g of diet and were killed by halothane (Rhone Merieux, Essex, UK) overdose and exsanguination exactly two hours later. The abdomen was opened and tissues were aseptically removed. […]
DNA, RNA, protein were determined as before by the diphenylamine, orcinol and modified Lowry methods (Grant et al, 2000). […]

p38 MAP kinase = experiment: Western blot of MAP kinase phosphorylation in Caco-2 cells; format: cell-based; conditions: co-incubation
RelA = experiment: Immunoprecipitation of RelA / PPARγ from Caco-2 cells; format: cell-based
Text: Immuno-precipitates were resolved using SDS-PAGE. Western blots were developed using a monoclonal anti-RelA [NF-κB p65], anti-PPARγ antibodies and anti-HDAC3 (Santa Cruz).
A) Immuno-detection RelA. Caco-2 cells prepared following standard culture protocol, treatment groups (1-4). Immunoprecipitates prepared using anti-PPARγ sepharose conjugate.

leukocyte-elastase = experiment: Elastase in faeces or intestine contents; format: in vivo, Hooded Lister rats; conditions: mean ± SD, n = 6
Description: Freeze dried faeces or intestine contents were extracted (1:10 w/v) in ice-cold 0.5M potassium phosphate pH 6.0 containing HETAB, EDTA and NaN3 (1 g/l), left on ice for 30 min, centrifuged (3000 g, 30 min, 4° C.) and the supernatants were frozen.
Sample or leukocyte-elastase (Sigma-Aldrich, Poole, UK) was serially diluted in 0.2M Tris HCl pH 8.0 containing 1 M NaCl and leupeptin (1 mg/l) on a microtiter plate. Substrate (N-succinyl-ala-ala-val-p-nitroanilide, 0.2 g/l, Sigma-Aldrich, Poole, UK) was added and the absorbance at 405 nm monitored immediately and at intervals up to 20 hours during incubation at 37° C. Values were expressed as leukocyte-elastase equivalents.

RelA [NF-κB p65] [3] = experiment: Supershift EMSA on Caco-2 nuclear extracts; format: cell-based; conditions: S. enteritidis, 2 hours, heat inactivation 70° C. 15 minutes
Description: Where indicated B. thetaiotaomicron was heat inactivated at 70° C. for 15 minutes prior to its addition to the Caco-2 cells.
Nuclear extracts were incubated with single stranded ^32P-labeled oligonucleotide probes containing consensus binding sequences for NF-κB (SEQ ID NO:1 5′-[…] -3′) or AP-1 (SEQ ID NO: 2 5′-[…] -3′), separated by electrophoresis and visualized by autoradiography. EMSA supershifts were performed using specific NF-κB subunit antibodies. Effects of B. thetaiotaomicron on NFκB and AP-1 signaling were determined by EMSA, western blotting (protein and phosphoprotein), promoter-specific reporter analysis and target gene expression (eg. fos and jun).

NF-κB = NF-κB luciferase reporter in transfected Caco-2 cells; format: cell-based; conditions: bacteria 2 hours, luciferase after 8 hours
Description: C) Caco-2 cells were transfected with PPARγ DN and a NF-κB luciferase reporter construct (DN), and compared with control cells transfected with NF-κB luciferase reporter alone (MOCK).
Double transfection studies with PPARγ DN and an NF-κB luciferase reporter (gifted by Dr Israel, Pasteur Institute, Paris, France) were performed. […] To avoid this we stimulated the cells for 2 hours and then removed the bacteria by washing and determined luciferase protein production after 8 hours. We found both in the control and PPARγ DN transfected cells, that S. enteritidis induced NF-κB activation and luciferase protein synthesis (P<0.001) (FIG. 5C). In the PPARγ wild type (NT) transfected cells (luciferase alone) this response was attenuated by B. thetaiotaomicron (P<0.028), but not in dominant negative (DN) transfected cells (FIG. 5C). Similarly, there was modification of the cellular distribution of RelA, as determined using immunocytochemistry and laser scanning confocal microscopy (LSCM), in cells transfected with green fluorescent protein (GFP) with and without PPARγ DN. In the control cells (GFP alone) the distribution of RelA was predominantly cytosolic as described above for non-transfected cells (FIG. 5D (insert B,C)). In PPARγ DN transfected cells, the distribution was irregular and RelA localised to both the cytosolic and nuclear compartments (FIG. 5D, (insert D, E)).

## Bacteroides thetaiotaomicron [BT]
Human PMNs
  PMN recruitment in vitro: confirmed the anti-inflammatory activity
RelA [NF-κB p65] [1]
  Translocation of RelA to the nucleus: abolish the translocation of RelA to the nucleus
S. enteritidis
  Level of MPO in the ileal mucosa: significantly attenuated
[2]; 6 d post-infection
  Water content of small intestine: 745 ± 24 mg/g
[2]; 6d post-infection, mean ± SD, n = 6
  Weight of Gastrocnemius muscles: 834 ± 22^a mg wet weight/100 g fresh body weight
[2]; specific pathogen-free rats, daily B. thetaiotaomicron from weaning
  Adverse effect on gut or systemic metabolism: no indications that B. thetaiotaomicron adversely affected gut or systemic metabolism
p38 MAP kinase
  p38 phosphorylation induced by Salmonella: not modified
RelA; Caco-2 cells co-cultured with S. enteritidis and B. thetaiotaomicron, 2 hours
  HDAC3 association with RelA: promoted
RelA; cells treated with S. enteritidis in the presence of B. thetaiotaomicron
  Co-purification of RelA with PPARγ: co-purification of RelA
leukocyte-elastase; 6d post-infection
  Intestinal contents Elastase: 210 ± 0.38^a μg
leukocyte-elastase; during 6d post-infection
  Faeces Elastase: 5.7 ± 1.0^a μg/d
RelA [NF-κB p65] [3]
  RelA response (supershift EMSA): inhibited
NF-κB
  S. enteritidis induced NF-κB luciferase response, PPARγ dominant negative (DN) transfected cells: not
NF-κB; P<0.028
  S. enteritidis induced NF-κB luciferase response, PPARγ wild type cells (luciferase alone): attenuated
